Reference: US5552421A, “Leukotriene biosynthesis inhibitors” (Boehringer Ingelheim Pharmaceuticals, Inc., priority 1995, dated 1996)
Blank lines part the entries; values can stand above or below the molecule they belong to.

System: LTB4 biosynthesis in human polymorphonuclear leukocytes (PMNs)
Assay: Inhibition of LTB4 biosynthesis in human polymorphonuclear leukocytes (PMNs)
Format: cell-based
Protocol: Inhibition of LTB4, biosynthesis in human polymorphonuclear leukocytes (PMNs)
The inhibition of leukotriene biosynthesis is measured by determining whether and to what extent test compounds can inhibit LTB4 production from endogenous arachidonic acid in human peripheral blood leukocytes.
To 48-well tissue culture plates was added a solution of the test compound followed by addition of human polymorphonuclear leukocytes isolated from peripheral blood at a density of 1.5×10^6 cells/well. Culture plates were preincubated for fifteen minutes with shaking at 28° C. Cells were stimulated with calcium ionophore A23187 at a final concentration of 2.5 μM for an additional ten minutes. The reaction was terminated by the addition of an EGTA solution (10 mM final concentration)followed by centrifugation at 1500 rpm at 10° C. Supernatants were stored at -70° C. LTB4 levels were determined by RIA using a commercially available kit. Nonlinear regression analysis was used to calculate. IC50 values.
The following tables show % inhibition of LTB4 biosynthesis by compounds of the invention at test concentrations indicated, with the determined IC50 shown in μM.

[1] = Homo sapiens, Leukocyte, Table 9, Miscellaneous Heterocycle, values with <: see footnote d, Table 1
[2] = Homo sapiens, Leukocyte, Table 11, Thiazolopyridines, values with <: see footnote d, Table 1
[3] = Homo sapiens, Leukocyte, Table 4, Pyridyl, values with <: see footnote d, Table 1
[4] = Homo sapiens, Leukocyte, Table 3, Phenyl, values with <: see footnote d, Table 1
[5] = Homo sapiens, Leukocyte, Table 6, Methyloxadiazole, values with <: see footnote d, Table 1
[6] = Leukocyte, Table 1, Esters, LTB4, A23187-stimulated human PMNs, values with < (footnote d): greater than 50% (504 [sic]) inhibition at this concentration, IC50 not characterized further
[7] = Table 4, Pyridyl, values with <: see footnote d, Table 1
[8] = Homo sapiens, Leukocyte, Table 8, Miscellaneous Acyclic, values with <: see footnote d, Table 1
[9] = Homo sapiens, Leukocyte, Table 2, Amides, values with <: see footnote d, Tables 1 and 1A
[10] = Homo sapiens, Leukocyte, Table 7, Ketones

Compound: Cc1ccc2sc(NC(CC3CCCCC3)c3ccccn3)nc2n1 (stereo not shown) [Compound 187]
IC50 [2]: 13 nM

Compound: Fc1ccc(CC(Nc2nc3cc(Cl)ccc3o2)c2ccccn2)cc1 (stereo not shown) [Compound 93]
IC50 [3]: 19 nM

Compound: Cc1cccc(C(CC2CCCCC2)Nc2nc3ccccc3o2)c1 (stereo not shown) [Compound 57]
IC50 [4]: 300 nM

Compound: Cc1cnc2nc(NC(Cc3ccc(F)cc3)c3ccccn3)sc2c1 (stereo not shown) [Compound 192]
IC50 [2]: < 300 nM

Compound: Cc1ccc2oc(NC(CC3CCCCC3)c3cccnc3)nc2c1 (single isomer, unassigned) [Compound 90]
IC50 [7]: < 1000 nM

Compound: CCOC(=O)C(Cc1ccc(Cl)cc1)Nc1nc2ccc(OC)cc2s1 (stereo not shown) [Compound 9]
IC50 [6]: 230 nM

Compound: Fc1ccc(CC(Nc2nc3cc(Cl)ccc3o2)c2ncc[nH]2)cc1 (stereo not shown) [Compound 155]
IC50 [1]: 290 nM

Compound: Cc1ccc2oc(NC(CC3CCCCC3)c3ccccn3)nc2c1 (single isomer, unassigned) [Compound 87]
IC50 [7]: 1.3 nM

Compound: Fc1ccc(CC(Nc2nc3cc(Cl)ccc3o2)c2ccccn2)cc1 (single isomer, unassigned) [Compound 118]
IC50 [7]: 10 nM

Compound: CCOC(=O)C(Cc1csc(C)n1)Nc1nc2cc(OC)ccc2o1 (stereo not shown) [Compound 27]
IC50 [6]: < 300 nM

Compound: O=[N+]([O-])c1ccc2oc(NC(Cc3ccc(F)cc3)c3ccccn3)nc2c1 (stereo not shown) [Compound 115]
IC50 [3]: < 30 nM

Compound: Cc1ccc2oc(NC(CC3CCCCC3)c3ccccn3)nc2n1 (single isomer, unassigned) [Compound 166]
IC50 (Table 10, Oxazolopyridines, values with <: see footnote d, Table 1): 15 nM

Compound: Cc1nc2nc(NC(CC3CCCCC3)c3cccnc3)sc2cc1Br (stereo not shown) [Compound 186]
IC50 [2]: 21 nM

Compound: CCOC(=O)C(Cc1ccc(Cl)cc1)Nc1nc2ccc(C(C)C)cc2s1 (racemic) [Compound 7, DL-N-(6-Isopropylbenzothiazol-2-yl)-4-chlorophenylalanine ethyl ester]
IC50 [6]: 330 nM

Compound: CCOC(=O)C(Cc1nccs1)Nc1nc2cc(Cl)ccc2o1 (stereo not shown) [Compound 28]
IC50 [6]: < 300 nM

Compound: COc1ccc2oc(NC(Cc3ccc(F)cc3)c3ccccn3)nc2c1 (stereo not shown) [Compound 114]
IC50 [3]: 11 nM

Compound: Fc1ccc2oc(NC(CC3CCCCC3)c3ccccn3)nc2c1F (stereo not shown) [Compound 111]
IC50 [3]: 4 nM

Compound: Cc1cnc2nc(NC(CC3CCCCC3)c3ccccn3)sc2c1 (stereo not shown) [Compound 184]
IC50 [2]: 31 nM

Compound: Cc1ccc2oc(NC(CC3CCCCC3)c3ccncc3)nc2c1 (stereo not shown) [Compound 83]
IC50 [3]: 190 nM

Compound: c1ccc(C(CC2CCCCC2)Nc2nc3cccnc3s2)nc1 (stereo not shown) [Compound 174]
IC50 [2]: 27 nM

Compound: O=C(O)c1ccc2nc(NC(CC3CCCCC3)c3ccccc3)sc2c1 (stereo not shown) [Compound 66]
IC50 [4]: 220 nM

Compound: c1ccc(CC(Nc2nc3ccccc3s2)c2ccccc2)cc1 (stereo not shown) [Compound 47]
IC50 [4]: 160 nM

Compound: Cc1ccc2oc(NC(CC3CCCCC3)c3ccccn3)nc2c1 (single isomer, unassigned) [Compound 88]
IC50 [7]: 45 nM

Compound: c1ccc(C(CC2CCCCC2)Nc2nc3cccnc3o2)cc1 (stereo not shown) [Compound 170]
IC50 (Homo sapiens, Leukocyte, Table 10, Oxazolopyridines, values with <: see footnote d, Table 1): 21 nM

Compound: COC(=O)[C@H](CC1CCCCC1)Nc1nc2cc(C)ccc2o1 [Compound 24]
IC50 [6]: 1.7 nM

Compound: Clc1ccc2sc(NC(CC3CCCCC3)c3ccccn3)nc2c1 (stereo not shown) [Compound 102]
IC50 [7]: 4 nM

Compound: Cc1ccc2oc(NC(CC3CCCCC3)c3cccnc3)nc2c1 (stereo not shown) [Compound 82]
IC50 [3]: 24 nM

Compound: Fc1ccc(C(CC2CCCCC2)Nc2nc3ccccc3o2)cc1 (stereo not shown) [Compound 71]
IC50 [4]: 170 nM

Compound: CNC(=O)[C@H](CC1CCCCC1)Nc1nc2cc(C)ccc2o1 [Compound 44, L-N-(5-Methylbenzoxazol-2-yl)cyclohexylalanine-N'-methylamide]
IC50 [9]: 72 nM

Compound: Fc1ccc2oc(NC(Cc3cccc(Cl)c3)c3ccccn3)nc2c1 (stereo not shown) [Compound 105]
IC50 [3]: < 30 nM

Compound: CCc1ccc2sc(N[C@@H](Cc3ccccc3)c3nc(C)no3)nc2c1 [Compound 123]
IC50 [5]: < 1000 nM

Compound: FC(F)(F)c1ccc2oc(NC(CC3CCCCC3)c3ccccn3)nc2c1 (stereo not shown) [Compound 95]
IC50 [3]: 1.2 nM

Compound: Cc1noc(C(Cc2ccccc2)Nc2nc3ccccc3s2)n1 (stereo not shown) [Compound 121]
IC50 [5]: 1300 nM

Compound: CCOC(=O)C(C)(Cc1ccccc1)Nc1nc2ccccc2s1 (stereo not shown) [Compound 38]
IC50 (Homo sapiens, Leukocyte, Table 1A, Esters, LTB4, A23187-stimulated human PMNs): 200 nM

Compound: CC(C)(C)OC(=O)[C@H](Cc1ccccc1)Nc1nc2ccccc2s1 [Compound 13]
IC50 [6]: 730 nM

Compound: Cc1ccc2oc(N[C@@H](CC3CCCCC3)c3nc(C)no3)nc2c1 [Compound 125, L-2-[2-Cyclohexyl-1-(3-methyl-1,2,4-oxadiazol-5-yl)ethyl]amino-5-methylbenzoxazole]
IC50 [5]: 28 nM

Compound: CCOC(=O)C(Cc1ccc(Cl)cc1)Nc1nc2ccccc2s1 (stereo not shown) [Compound 1]
IC50 [6]: 200 nM

Compound: Fc1ccc(CC(Nc2nc3cc(F)ccc3o2)c2ccccn2)cc1 (stereo not shown) [Compound 110]
IC50 [3]: 21 nM

Compound: c1cncc(C(CC2CCCCC2)Nc2nc3cccnc3s2)c1 (stereo not shown) [Compound 173]
IC50 [2]: 170 nM

Compound: Cc1ccc2oc(N[C@@H](CC3CCCCC3)C(=O)OC(C)(C)C)nc2c1 [Compound 25]
IC50 [6]: < 300 nM

Compound: Cc1cnc2nc(NC(CC3CCCCC3)c3ccccc3)sc2c1 (stereo not shown) [Compound 191]
IC50 [2]: < 1000 nM

Compound: O=[N+]([O-])c1ccc(CC(Nc2nc3cc(Cl)ccc3o2)c2ccccn2)cc1 (stereo not shown) [Compound 104]
IC50 [3]: < 30 nM

Compound: Clc1ccccc1C(CC1CCCCC1)Nc1nc2ccccc2o1 (stereo not shown) [Compound 58]
IC50 [4]: 80 nM

Compound: Fc1cc2nc(NC(CC3CCCCC3)c3ccccn3)oc2cc1F (stereo not shown) [Compound 112]
IC50 [3]: 1 nM

Compound: CON(C)C(=O)[C@H](CC1CCCCC1)Nc1nc2cc(C)ccc2o1 [Compound 45]
IC50 [9]: 30 nM

Further lines, results first:

IC50 [1]: < 100 nM
Compound: CC(C)c1ccc2oc(NC(Cc3ccccc3)c3cn[nH]c3)nc2c1 (stereo not shown) [Compound 161]

IC50 [5]: < 1000 nM
Compound: Cc1noc(C(Cc2csc(C)n2)Nc2nc3cc(C(C)C)ccc3o2)n1 (stereo not shown) [Compound 127]

IC50 [6]: 140 nM
Compound: COC(=O)[C@H](Cc1ccccc1)Nc1nc2ccc(C(C)C)cc2s1 [Compound 8]

IC50 [4]: < 1000 nM
Compound: c1ccc(CC(Nc2nc3ccccc3o2)c2ccccc2)cc1 (stereo not shown) [Compound 50]

IC50 [4]: < 1000 nM
Compound: NC(=O)c1ccc2oc(NC(CC3CCCCC3)c3ccccc3)nc2c1 (stereo not shown) [Compound 64]

IC50 [8]: < 1000 nM
Compound: COCC(Cc1cccnc1)Nc1nc2cc(C(C)C)ccc2o1 (stereo not shown) [Compound 140]

IC50 [8]: < 30 nM
Compound: COCC(Cc1ccc(OC)cc1)Nc1nc2cc(C(C)C)ccc2o1 (stereo not shown) [Compound 139]

IC50 [8]: < 30 nM
Compound: COCC(Cc1ccc(F)cc1)Nc1nc2cc(C(C)C)ccc2o1 (stereo not shown) [Compound 136]

IC50 [6]: 1 nM
Compound: COC(=O)[C@H](CC1CCCCC1)Nc1nc2cc(C(C)C)ccc2o1 [Compound 23]

IC50 [8]: 63 nM
Compound: CNC(=O)OC[C@H](Cc1ccccc1)Nc1nc2cc(C(C)C)ccc2o1 [Compound 154]

IC50 [4]: 190 nM
Compound: O=C(O)c1ccc2oc(NC(CC3CCCCC3)c3ccccc3)nc2c1 (stereo not shown) [Compound 63]

IC50 [3]: 5 nM
Compound: CC(C)c1ccc2oc(NC(Cc3cccc(Cl)c3)c3ccccn3)nc2c1 (stereo not shown) [Compound 100]

IC50 [8]: < 100 nM
Compound: CSCC(Cc1csc(C)n1)Nc1nc2cc(C(C)C)ccc2o1 (stereo not shown) [Compound 145]

IC50 [8]: < 100 nM
Compound: CC(=O)NC[C@H](Cc1ccccc1)Nc1nc2cc(C(C)C)ccc2o1 [Compound 151]

IC50 [8]: < 30 nM
Compound: CSC[C@H](Cc1cccc(Cl)c1)Nc1nc2cc(C(C)C)ccc2o1 [Compound 142]

IC50 [8]: < 300 nM
Compound: CCCOCC(Cc1ccc(F)cc1)Nc1nc2cc(C(C)C)ccc2o1 (stereo not shown) [Compound 138]

IC50 [8]: < 30 nM
Compound: CC(C)c1ccc2oc(NC(Cc3ccccc3)CS(C)(=O)=O)nc2c1 (stereo not shown) [Compound 146]

IC50 [6]: < 100 nM
Compound: CCOC(=O)C(Cc1ccncc1)Nc1nc2cc(C(C)C)ccc2o1 (stereo not shown) [Compound 31]

IC50 [6]: 650 nM
Compound: COC(=O)[C@@H](Cc1ccccc1)Nc1nc2ccc(C(C)C)cc2s1 [Compound 10]

IC50 [10]: < 300 nM
Compound: O=C(c1ccccc1)[C@H](Cc1ccccc1)Nc1nc2ccccc2o1 [Compound 130]

IC50 [4]: < 1000 nM
Compound: CNC(=O)Nc1ccc2oc(NC(CC3CCCCC3)c3ccccc3)nc2c1 (stereo not shown) [Compound 62]

IC50 [6]: 190 nM
Compound: CCOC(=O)C(Cc1cccnc1)Nc1nc2cc(C(C)C)ccc2o1 (stereo not shown) [Compound 30]

IC50 [6]: 240 nM
Compound: CCOC(=O)[C@H](Cc1ccccc1)Nc1nc2ccc(CC)cc2s1 [Compound 12]

IC50 [3]: 50 nM
Compound: CN(C)S(=O)(=O)c1ccc2oc(NC(Cc3ccc(F)cc3)c3ccccn3)nc2c1 (stereo not shown) [Compound 103]

IC50 [10]: < 1000 nM
Compound: Cc1ccc2oc(N[C@@H](CC3CCCCC3)C(=O)c3ccccc3)nc2c1 [Compound 131]

IC50 [3]: 29 nM
Compound: CC(C)c1ccc2oc(NC(Cc3ccc(Cl)cc3)c3ccccn3)nc2c1 (stereo not shown) [Compound 98]

IC50 [4]: 6.3 nM
Compound: CC(C)c1ccc2oc(NC(CC3CCCCC3)c3ccccc3)nc2c1 (stereo not shown) [Compound 54]

IC50 [8]: < 100 nM
Compound: CC(C)c1ccc2oc(N[C@H](CNS(=O)(=O)N(C)C)Cc3ccccc3)nc2c1 [Compound 152]

IC50 [8]: 16 nM
Compound: CCOC[C@H](Cc1ccccc1)Nc1nc2cc(C(C)C)ccc2o1 [Compound 133]

IC50 [1]: 90 nM
Compound: CC(C)c1ccc2oc(NC(Cc3ccc(F)cc3)c3ncc[nH]3)nc2c1 (stereo not shown) [Compound 156]

IC50 [6]: 0.52 nM
Compound: CCOC(=O)[C@H](Cc1ccccc1)Nc1nc2cc(C(C)C)ccc2o1 [Compound 19]
